Target: Menin-MLL (Homo sapiens (Human), UniProt O00255)
Experiment: Determination of binding constants (Ki) to Menin-MLL (HTRF)
Conditions: HTRF, 0.25 nM H-FL-Menin, 3.2 nM FITC-MLL-4-43, 24 hr incubation; for Ki: read-out: Menin-MLL Ki HTRF Assay: Ki

Menin-MLL, sequence (O00255 whole entry): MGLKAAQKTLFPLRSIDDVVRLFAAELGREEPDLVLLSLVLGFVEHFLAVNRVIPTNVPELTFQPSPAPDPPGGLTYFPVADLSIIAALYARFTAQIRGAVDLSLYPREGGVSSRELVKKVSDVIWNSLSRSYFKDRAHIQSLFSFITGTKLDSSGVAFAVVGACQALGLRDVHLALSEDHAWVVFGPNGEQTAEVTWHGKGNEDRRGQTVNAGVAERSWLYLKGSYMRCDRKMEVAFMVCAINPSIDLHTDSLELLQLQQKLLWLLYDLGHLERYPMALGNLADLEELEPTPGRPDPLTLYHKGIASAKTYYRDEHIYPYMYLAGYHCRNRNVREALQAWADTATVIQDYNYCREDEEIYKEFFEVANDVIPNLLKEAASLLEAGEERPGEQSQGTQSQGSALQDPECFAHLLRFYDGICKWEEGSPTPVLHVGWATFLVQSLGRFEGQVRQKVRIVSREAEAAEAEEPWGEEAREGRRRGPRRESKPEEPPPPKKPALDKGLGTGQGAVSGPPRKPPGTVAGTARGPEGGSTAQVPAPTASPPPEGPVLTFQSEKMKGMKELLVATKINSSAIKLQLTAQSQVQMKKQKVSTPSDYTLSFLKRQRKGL

SMILES | Ki [nM] | EC50 [nM]
CCN(C(=O)c1cc(F)ccc1Oc1cnc(C)nc1N1CC2(CCN(C[C@@H]3CC[C@@H](NS(=O)(=O)CC)CO3)CC2)C1)C(C)C [Compound 216, N-Ethyl-2-((4-(7-(((2S,5R)-5-(ethylsulfonamido)tetrahydro-2H-pyran-2-yl)methyl)-2,7-diazaspiro[3.5]nonan-2-yl)-2-methylpyrimidin-5-yl)oxy)-5-fluoro-N-isopropylbenzamide] | 1 to 1.5 | –
C=CS(=O)(=O)N[C@@H]1CC[C@@H](CN2CCC3(CC2)CN(c2ncncc2Oc2ccc(F)cc2C(=O)N(CC)C(C)C)C3)OC1 [Compound 219, N-Ethyl-5-fluoro-N-isopropyl-2-((4-(7-(((2S,5R)-5-(vinylsulfonamido)tetrahydro-2H-pyran-2-yl)methyl)-2,7-diazaspiro[3.5]nonan-2-yl)pyrimidin-5-yl)oxy)benzamide] | < 1 | –
CCN(C(=O)c1cc(F)ccc1Oc1cncnc1N1CC2(CCN(C[C@@H]3CC[C@@H](NS(=O)(=O)CCN(C)C)CO3)CC2)C1)C(C)C [Compound 220, 2-((4-(7-(((2S,5R)-5-((2-(Dimethylamino)ethyl)sulfonamido)tetrahydro-2H-pyran-2-yl)methyl)-2,7-diazaspiro[3.5]nonan-2-yl)pyrimidin-5-yl)oxy)-N-ethyl-5-fluoro-N-isopropylbenzamide] | 1 to 1.5 | –
CC(C)N(C(=O)c1cc(F)ccc1Oc1cncnc1N1CC2(CCN(C[C@@H]3CC[C@@H](NS(=O)(=O)N4CC5(CCO5)C4)CO3)CC2)C1)C(C)C [Compound 221, 2-((4-(7-(((2S,5R)-5-(1-Oxa-6-azaspiro[3.3]heptane-6-sulfonamido)tetrahydro-2H-pyran-2-yl)methyl)-2,7-diazaspiro[3.5]nonan-2-yl)pyrimidin-5-yl)oxy)-5-fluoro-N,N-diisopropylbenzamide] | < 1 | –
CC(C)N(C(=O)c1cc(F)ccc1Oc1cncnc1N1CC2(CCN(C[C@@H]3CC[C@@H](NS(=O)(=O)N4CC5(COC5)C4)CO3)CC2)C1)C(C)C [Compound 222, 2-((4-(7-(((2S,5R)-5-(2-Oxa-6-azaspiro[3.3]heptane-6-sulfonamido)tetrahydro-2H-pyran-2-yl)methyl)-2,7-diazaspiro[3.5]nonan-2-yl)pyrimidin-5-yl)oxy)-5-fluoro-N,N-diisopropylbenzamide] | < 1 | –
CN=S(=O)(N[C@@H]1CC[C@@H](CN2CCC3(CC2)CN(c2ncncc2Oc2ccc(F)cc2C(=O)N(C(C)C)C(C)C)C3)OC1)c1ccccc1 (stereo partly drawn) [Compound 232, 5-Fluoro-N,N-diisopropyl-2-((4-(7-(((2S,5R)-5-(N′-methylphenylsulfonoamidimidamido)tetrahydro-2H-pyran-2-yl)methyl)-2,7-diazaspiro[3.5]nonan-2-yl)pyrimidin-5-yl)oxy)benzamide] | < 1 | –
CC(C)N(C(=O)c1cc(F)ccc1Oc1cncnc1N1CC2(CCN(C[C@@H]3CC[C@@H](NS(=N)(=O)C4CC4)CO3)CC2)C1)C(C)C (stereo partly drawn) [Compound 233, 2-((4-(7-(((2S,5R)-5-(Cyclopropanesulfonoamidimidamido)tetrahydro-2H-pyran-2-yl)methyl)-2,7-diazaspiro[3.5]nonan-2-yl)pyrimidin-5-yl)oxy)-5-fluoro-N,N-diisopropylbenzamide] | < 1 | –
Cc1ncc(S(=O)(=O)N[C@@H]2CC[C@@H](CN3CCC4(CC3)CN(c3ncncc3Oc3ccc(F)cc3C(=O)N(C(C)C)C(C)C)C4)OC2)[nH]1 [Compound 234, 5-Fluoro-N,N-diisopropyl-2-((4-(7-(((2S,5R)-5-((2-methyl-1H-imidazole)-5-sulfonamido)tetrahydro-2H-pyran-2-yl)methyl)-2,7-diazaspiro[3.5]nonan-2-yl)pyrimidin-5-yl)oxy)benzamide] | < 1 | –
CC(C)N(CC(F)F)C(=O)c1cc(F)ccc1Oc1cncnc1N1CC2(CCN(C[C@@H]3CC[C@@H](NS(=O)(=O)N4CC(OCc5ccccc5)C4)CO3)CC2)C1 [Compound 236, 2-((4-(7-(((2S,5R)-5-((3-(Benzyloxy)azetidine)-1-sulfonamido)tetrahydro-2H-pyran-2-yl)methyl)-2,7-diazaspiro[3.5]nonan-2-yl)pyrimidin-5-yl)oxy)-N-(2,2-difluoroethyl)-5-fluoro-N-isopropylbenzamide] | < 1 | –
CC(C)N(CC(F)F)C(=O)c1cc(F)ccc1Oc1cncnc1N1CC2(CCN(C[C@@H]3CC[C@@H](NS(=O)(=O)N4CC(O)C4)CO3)CC2)C1 [Compound 237, N-(2,2-Difluoroethyl)-5-fluoro-2-((4-(7-(((2S,5R)-5-((3-hydroxyazetidine)-1-sulfonamido)tetrahydro-2H-pyran-2-yl)methyl)-2,7-diazaspiro[3.5]nonan-2-yl)pyrimidin-5-yl)oxy)-N-isopropylbenzamide] | < 1 | –
CC(C)N(CC(F)F)C(=O)c1cc(F)ccc1Oc1cncnc1N1CC2(CCN(C[C@@H]3CC[C@@H](NS(=O)(=O)N(C)CCOCc4ccccc4)CO3)CC2)C1 [Compound 238] | < 1 | –
CCS(=O)(=O)N[C@@H]1CC[C@@H](CN2CCC3(CC2)CN(c2ncncc2Oc2ccc(F)cc2C(=O)N(CCC(F)F)C(C)C)C3)OC1 [Compound 242, N-(3,3-Difluoropropyl)-2-((4-(7-(((2S,5R)-5-(ethylsulfonamido)tetrahydro-2H-pyran-2-yl)methyl)-2,7-diazaspiro[3.5]nonan-2-yl)pyrimidin-5-yl)oxy)-5-fluoro-N-isopropylbenzamide] | < 1 | < 50
CC(C)N(C(=O)c1cc(F)ccc1Oc1cncnc1N1CC2(CCN(C[C@@H]3CC[C@@H](NS(=O)(=O)C4CC4)CO3)CC2)C1)C1COC1 [Compound 247, 2-((4-(7-(((2S,5R)-5-(Cyclopropanesulfonamido)tetrahydro-2H-pyran-2-yl)methyl)-2,7-diazaspiro[3.5]nonan-2-yl)pyrimidin-5-yl)oxy)-5-fluoro-N-isopropyl-N-(oxetan-3-yl)benzamide] | < 1 | < 50
CCS(=O)(=O)N[C@@H]1CC[C@@H](CN2CCC3(CC2)CN(c2ncncc2Oc2ccc(F)cc2C(=O)N(C(C)C)C2CCOCC2)C3)OC1 [Compound 250, 2-((4-(7-(((2S,5R)-5-(Ethylsulfonamido)tetrahydro-2H-pyran-2-yl)methyl)-2,7-diazaspiro[3.5]nonan-2-yl)pyrimidin-5-yl)oxy)-5-fluoro-N-isopropyl-N-(tetrahydro-2H-pyran-4-yl)benzamide] | – | < 50
CCS(=O)(=O)N[C@@H]1CC[C@@H](CN2CCC3(CC2)CN(c2ncncc2Oc2ccc(F)cc2C(=O)N(C(C)C)[C@@H]2C[C@@H]4CC[C@H]2O4)C3)OC1 [Compound 251, N-((lR,2R,4S)-7-Oxabicyclo[2.2.1]heptan-2-yl)-2-((4-(7-(((2S,5R)-5-(ethylsulfonamido)tetrahydro-2H-pyran-2-yl)methyl)-2,7-diazaspiro[3.5]nonan-2-yl)pyrimidin-5-yl)oxy)-5-fluoro-N-isopropylbenzamide] | < 1 | –
CCS(=O)(=O)N[C@@H]1CC[C@@H](CN2CCC3(CC2)CN(c2ncncc2Oc2ccc(F)cc2C(=O)N(C(C)C)C2CC4(COC4)C2)C3)OC1 [Compound 252, 2-((4-(7-(((2S,5R)-5-(Ethylsulfonamido)tetrahydro-2H-pyran-2-yl)methyl)-2,7-diazaspiro[3.5]nonan-2-yl)pyrimidin-5-yl)oxy)-5-fluoro-N-isopropyl-N-(2-oxaspiro[3.3]heptan-6-yl)benzamide] | < 1 | –
CCS(=O)(=O)N[C@@H]1CC[C@@H](CN2CCC3(CC2)CN(c2ncncc2Oc2ccc(F)cc2C(=O)N(C(C)C)[C@H]2[C@@H]4COC[C@@H]42)C3)OC1 [Compound 253, N-((1R,5S,6r)-3-c)-2-((4-(7-(((2S,5R)-5-(ethylsulfonamido)tetrahydro-2H-pyran-2-yl)methyl)-2,7-diazaspiro[3.5]nonan-2-yl)pyrimidin-5-yl)oxy)-5-fluoro-N-isopropylbenzamide] | < 1 | –
COCCN(C(=O)c1cc(F)ccc1Oc1cncnc1N1CC2(CCN(C[C@@H]3CC[C@@H](NS(=O)(=O)c4ccccc4)CO3)CC2)C1)C(C)C [Compound 254, 5-Fluoro-N-isopropyl-N-(2-methoxyethyl)-2-((4-(7-(((2S,5R)-5-(phenylsulfonamido)tetrahydro-2H-pyran-2-yl)methyl)-2,7-diazaspiro[3.5]nonan-2-yl)pyrimidin-5-yl)oxy)benzamide] | < 1 | < 50
CCS(=O)(=O)N[C@@H]1CC[C@@H](CN2CCC3(CC2)CN(c2ncncc2Oc2ccc(F)cc2C(=O)N(C[C@@H](O)CO)C(C)C)C3)OC1 [Compound 255, N-((R)-2,3-Dihydroxypropyl)-2-((4-(7-(((2S,5R)-5-(ethylsulfonamido)tetrahydro-2H-pyran-2-yl)methyl)-2,7-diazaspiro[3.5]nonan-2-yl)pyrimidin-5-yl)oxy)-5-fluoro-N-isopropylbenzamide] | < 1 | < 50
CCS(=O)(=O)N[C@@H]1CC[C@@H](CN2CCC3(CC2)CN(c2ncncc2Oc2ccc(F)cc2C(=O)N(C(C)C)[C@H]2C[C@H](O)C2)C3)OC1 [Compound 259, 2-((4-(7-(((2S,5R)-5-(Ethylsulfonamido)tetrahydro-2H-pyran-2-yl)methyl)-2,7-diazaspiro[3.5]nonan-2-yl)pyrimidin-5-yl)oxy)-5-fluoro-N-((1r,3r)-3-hydroxycyclobutyl)-N-isopropylbenzamide] | < 1 | < 50
CCS(=O)(=O)N[C@@H]1CC[C@@H](CN2CCC3(CC2)CN(c2ncncc2Oc2ccc(F)cc2C(=O)N(c2ccccc2)C(C)C)C3)OC1 [Compound 260, 2-((4-(7-(((2S,5R)-5-(Ethylsulfonamido)tetrahydro-2H-pyran-2-yl)methyl)-2,7-diazaspiro[3.5]nonan-2-yl)pyrimidin-5-yl)oxy)-5-fluoro-N-isopropyl-N-phenylbenzamide] | – | < 50
CCS(=O)(=O)N[C@@H]1CC[C@@H](CN2CCC3(CC2)CN(c2ncncc2Oc2ccc(F)cc2C(=O)N(c2ccccc2)c2ccccc2)C3)OC1 [Compound 261] | – | < 50

— patent publication US11919901B2 (Syndax Pharmaceuticals, Inc., priority 2021, dated 2024)
